Source: PubChem BioAssay (NCI)
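Briefly, cells in 96-well plates were exposed to five compound concentrations for 48 h, and endpoints were estimated by linear interpolation. GI50 = concentration required for 50% inhibition of growth. TGI: total growth inhibition.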

What was measured:
Assay in all cases: inhibition of tumour cell growth, NCI panel, 48 h
[1] = system: SNB-75 CNS
[2] = system: COLO 205 colon
[3] = system: OVCAR-5 ovarian
[4] = system: OVCAR-4 ovarian
[5] = system: SNB-19 CNS
[6] = system: K-562 leukemia
[7] = system: HL-60(TB) leukemia
[8] = system: OVCAR-8 ovarian
[9] = system: LOX IMVI melanoma
[10] = system: A549 NSCLC

Structure (SMILES) | TGI [1] [µM] | TGI [2] [µM] | TGI [3] [µM] | TGI [4] [µM] | TGI [5] [µM] | TGI [6] [µM] | TGI [7] [µM] | TGI [8] [µM] | TGI [9] [µM] | TGI [10] [µM] | GI50 [1] [µM] | GI50 [2] [µM] | GI50 [3] [µM] | GI50 [4] [µM] | GI50 [5] [µM] | GI50 [6] [µM] | GI50 [7] [µM] | GI50 [8] [µM] | GI50 [9] [µM] | GI50 [10] [µM]
CN(C)NC(=S)Nc1ccccc1Br | > 100 | > 100 | > 100 | > 100 | > 100 | > 100 | > 100 | > 100 | > 100 | > 100 | – | – | – | – | – | – | – | – | – | –
C=C1[C@@H](O)C[C@@]23CC[C@@H]4[C@@]5(C)CC[C@@H](OC(C)=O)C(C)(C)[C@@H]5C[C@@H](OC5OC(COC(C)=O)C(O)C(O)C5O)[C@@]4(C)C2=CC[C@H]3[C@H]1C (stereo not given in full) | 16.1 | 4.36 | 7.08 | 21 | 17.5 | 10.6 | 4.86 | 21.8 | 10.9 | 16.8 | – | – | – | – | – | – | – | – | – | –
COc1ccc2c(c1)O/C(=C\c1cccc(OCC(=O)Nc3nc4c(s3)CCCC4)c1)C2=O | 54.9 | > 100 | > 78.8 | > 100 | > 100 | > 78.3 | 18.5 | > 70.4 | 3.32 | > 100 | 11.5 | > 100 | > 40.6 | > 100 | 44.6 | 4.08 | 3.32 | > 21.7 | 1.16 | 29
CC(C)=CCc1c2c(c3occ(-c4ccc(O)c(O)c4)c(=O)c3c1O)C=CC(C)(C)O2 | 8.51 | 4.04 | 21.1 | 3.39 | 5.02 | 5.12 | 0.246 | 9.31 | 5.22 | 7.6 | – | – | – | – | – | – | – | – | – | –
COC(=O)NN(C(=O)OC)c1c(-c2ccccc2)nc(SC)n1N | > 100 | > 100 | > 100 | > 100 | > 100 | > 100 | > 100 | > 100 | > 100 | > 100 | – | – | – | – | – | – | – | – | – | –
